Measurements taken from patent US10968215B2 (SHANGHAI HAIHE PHARMACEUTICAL CO., LTD., priority 2016, dated 2021).
pIC50: −log10 of the molar value. Read-outs that look alike come from different tables or passages of the source.

What was measured:
[1] = molecular target: PRC2 complex (EZH2/EED/SUZ12/RbAp48/AEBP2) (Homo sapiens (Human), UniProt Q15910); assay: Activity of a compound to PRC2 complex (EZH2 wild type), ELISA; type: biochemical; settings: class symbols
Text: Determination of the Activity of a Compound to PRC2 Complex (EZH2 Wild Type):
Detection Method: Enzyme-Linked Immunosorbent Assay (ELISA)
MATERIALS: The PRC2 complex (EZH2/EED/SUZ12/RbAp48/AEBP2) histone methyltransferase was purchased from BPS; the substrate Biotin H3 (21-44) me0 was produced by AnaSpec; SAM was purchased from Sigma, which is GL Biochem product; methyl donor SAM was purchased from Sigma-aldrich; H3K27me3 antibody was purchased from BPS.
Experimental method: avdin of a final concentration of 100 nM was used to coat 96-well plate at 10 μL/well, placed in a wet box and shaken overnight, and then 100 μL 3% BSA per well was added and blocked for 1 h at room temperature. PRC2 complex (EZH2/EED/SUZ12/RbAp48/AEBP2), H3 (21-44) me0 substrate, methyl donor SAM and compound were added into each well of the blocked 96-well plate. The total reaction system was 100 μL, placed in a wet box and allowed to react for 1 h on shaker at room temperature. The plate was washed with TBS-T [20 mM Tris-HCl (pH 7.2-7.4, room temperature), 150 mM NaCl, 0.1% (v/v) Tween-20] for 3 times, blocked with 3% BSA for 10 min, and anti-H3K27me3 antibody was added and incubated for 1 h in a wet box on shaker at room temperature. The plate was washed again with TBS-T for 3 times, and blocked with 3% BSA per well for 10 min. Horseradish peroxidase-labeled secondary antibody was added and reacted in a wet box at room temperature for 1 h, and finally, washed with TBS-T for 3 times. 2 mg/ml OPD color developing solution (1004/well) was added for coloring, and the reaction was stopped with 2M H2SO4 (50 μL/well). The plate was read by a plate reader at 490 nm and IC50 of the compound was calculated using SoftMax Pro 5.4.1 software.

[2] = molecular target: PRC2 complex (EZH2 Y641F/EED/SUZ12/RbAp48/AEBP2) (Homo sapiens (Human), UniProt Q15910, Y641F); assay: Activity of a compound to PRC2 complex (EZH2 Y641F), HTRF
Experimental: Determination of the Activity of a Compound to PRC2 Complex (EZH2Y641F):
Detection Method: Homogeneous Time-Resolved Fluorescence (HTRF)
Reaction was conducted in darkness at room temperature for 4 h. […] The IC50 values of the compounds were calculated using SoftMax Pro 5.4.1 software.

[3] = read-out: IC50 (EZH2_Y641F), EZH2 Y641F PRC2 complex, HTRF, class symbols

PRC2 complex (EZH2 Y641F/EED/SUZ12/RbAp48/AEBP2), sequence (Q15910 whole entry Y641F): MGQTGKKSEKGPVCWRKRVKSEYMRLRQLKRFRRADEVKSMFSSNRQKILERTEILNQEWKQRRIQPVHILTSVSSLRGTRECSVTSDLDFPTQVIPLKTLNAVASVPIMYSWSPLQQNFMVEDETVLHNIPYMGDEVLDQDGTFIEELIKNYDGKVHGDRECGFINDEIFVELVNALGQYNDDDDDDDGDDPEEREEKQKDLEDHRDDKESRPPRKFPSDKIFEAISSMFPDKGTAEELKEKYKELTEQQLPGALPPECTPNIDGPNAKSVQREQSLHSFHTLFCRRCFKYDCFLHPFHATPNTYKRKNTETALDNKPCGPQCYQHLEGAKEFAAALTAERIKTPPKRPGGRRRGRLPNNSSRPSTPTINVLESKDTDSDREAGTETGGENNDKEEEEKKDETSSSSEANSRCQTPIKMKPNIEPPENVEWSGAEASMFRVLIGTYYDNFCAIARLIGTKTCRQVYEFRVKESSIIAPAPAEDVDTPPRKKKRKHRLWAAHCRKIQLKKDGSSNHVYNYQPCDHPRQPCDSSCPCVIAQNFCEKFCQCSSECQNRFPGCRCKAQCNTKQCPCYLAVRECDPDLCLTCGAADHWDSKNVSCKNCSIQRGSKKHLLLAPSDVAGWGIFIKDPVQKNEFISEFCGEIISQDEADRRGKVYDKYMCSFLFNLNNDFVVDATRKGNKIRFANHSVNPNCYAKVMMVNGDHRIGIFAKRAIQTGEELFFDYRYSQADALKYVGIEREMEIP
PRC2 complex (EZH2 Y641F/EED/SUZ12/RbAp48/AEBP2), sequence (O75530 whole entry partner): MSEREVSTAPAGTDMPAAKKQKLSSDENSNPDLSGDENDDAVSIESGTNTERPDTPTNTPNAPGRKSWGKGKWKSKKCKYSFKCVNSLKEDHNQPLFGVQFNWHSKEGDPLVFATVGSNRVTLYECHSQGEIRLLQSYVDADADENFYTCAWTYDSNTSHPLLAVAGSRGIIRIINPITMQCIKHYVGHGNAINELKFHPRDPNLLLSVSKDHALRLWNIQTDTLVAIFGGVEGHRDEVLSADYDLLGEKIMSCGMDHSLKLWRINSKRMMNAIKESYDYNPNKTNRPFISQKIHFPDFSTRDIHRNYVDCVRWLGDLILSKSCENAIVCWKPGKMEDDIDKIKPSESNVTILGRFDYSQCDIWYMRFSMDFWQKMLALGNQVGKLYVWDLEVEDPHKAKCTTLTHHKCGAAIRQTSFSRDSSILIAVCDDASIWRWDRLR
PRC2 complex (EZH2 Y641F/EED/SUZ12/RbAp48/AEBP2), sequence (Q15022 whole entry partner): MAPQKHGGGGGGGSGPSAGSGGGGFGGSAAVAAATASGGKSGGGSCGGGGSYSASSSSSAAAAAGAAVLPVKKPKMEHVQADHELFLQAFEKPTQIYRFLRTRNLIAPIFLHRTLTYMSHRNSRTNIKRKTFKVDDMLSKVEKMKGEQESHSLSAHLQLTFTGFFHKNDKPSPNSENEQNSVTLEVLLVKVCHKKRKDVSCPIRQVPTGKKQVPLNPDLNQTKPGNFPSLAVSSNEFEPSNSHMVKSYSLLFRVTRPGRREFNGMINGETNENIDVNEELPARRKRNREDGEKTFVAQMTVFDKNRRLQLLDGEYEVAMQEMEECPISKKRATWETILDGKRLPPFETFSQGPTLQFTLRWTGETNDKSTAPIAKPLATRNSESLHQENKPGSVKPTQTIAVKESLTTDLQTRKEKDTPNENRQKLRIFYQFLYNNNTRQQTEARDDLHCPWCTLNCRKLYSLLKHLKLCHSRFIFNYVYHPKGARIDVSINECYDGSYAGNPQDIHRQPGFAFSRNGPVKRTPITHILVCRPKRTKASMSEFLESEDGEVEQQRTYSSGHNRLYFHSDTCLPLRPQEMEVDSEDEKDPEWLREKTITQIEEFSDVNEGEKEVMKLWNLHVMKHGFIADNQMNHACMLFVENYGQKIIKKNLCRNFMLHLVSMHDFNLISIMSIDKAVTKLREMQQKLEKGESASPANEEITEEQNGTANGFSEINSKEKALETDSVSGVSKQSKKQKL
PRC2 complex (EZH2 Y641F/EED/SUZ12/RbAp48/AEBP2), sequence (Q09028 whole entry partner): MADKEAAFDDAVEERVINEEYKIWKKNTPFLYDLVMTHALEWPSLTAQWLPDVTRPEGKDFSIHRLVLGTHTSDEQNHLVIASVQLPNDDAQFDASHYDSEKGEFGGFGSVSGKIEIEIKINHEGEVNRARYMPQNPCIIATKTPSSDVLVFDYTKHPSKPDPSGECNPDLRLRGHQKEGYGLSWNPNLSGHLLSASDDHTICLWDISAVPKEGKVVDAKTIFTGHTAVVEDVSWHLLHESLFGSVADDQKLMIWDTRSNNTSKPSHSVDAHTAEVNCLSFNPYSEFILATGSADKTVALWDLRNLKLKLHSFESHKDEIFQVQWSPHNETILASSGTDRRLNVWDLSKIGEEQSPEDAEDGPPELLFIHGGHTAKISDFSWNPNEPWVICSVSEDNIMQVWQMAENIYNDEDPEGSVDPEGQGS
PRC2 complex (EZH2 Y641F/EED/SUZ12/RbAp48/AEBP2), sequence (Q6ZN18 whole entry partner): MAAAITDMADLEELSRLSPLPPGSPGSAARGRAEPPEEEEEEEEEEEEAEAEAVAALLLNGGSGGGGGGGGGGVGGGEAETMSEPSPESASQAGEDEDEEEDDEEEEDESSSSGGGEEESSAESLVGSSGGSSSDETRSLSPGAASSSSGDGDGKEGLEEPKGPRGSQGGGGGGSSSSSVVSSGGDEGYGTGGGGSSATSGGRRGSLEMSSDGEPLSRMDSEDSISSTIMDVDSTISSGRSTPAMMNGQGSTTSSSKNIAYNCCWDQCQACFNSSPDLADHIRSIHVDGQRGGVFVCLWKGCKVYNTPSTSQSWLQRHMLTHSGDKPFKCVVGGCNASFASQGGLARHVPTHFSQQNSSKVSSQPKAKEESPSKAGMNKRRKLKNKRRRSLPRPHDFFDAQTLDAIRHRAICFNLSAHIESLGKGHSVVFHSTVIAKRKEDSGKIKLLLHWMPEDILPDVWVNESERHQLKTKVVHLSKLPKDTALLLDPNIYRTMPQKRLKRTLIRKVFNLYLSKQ
PRC2 complex (EZH2/EED/SUZ12/RbAp48/AEBP2), sequence (Q15910 whole entry): as the sequence (Q15910 whole entry Y641F) above, with F641Y counted along it
PRC2 complex (EZH2/EED/SUZ12/RbAp48/AEBP2), sequence (O75530 whole entry partner): as the sequence (O75530 whole entry partner) above
PRC2 complex (EZH2/EED/SUZ12/RbAp48/AEBP2), sequence (Q15022 whole entry partner): as the sequence (Q15022 whole entry partner) above
PRC2 complex (EZH2/EED/SUZ12/RbAp48/AEBP2), sequence (Q09028 whole entry partner): as the sequence (Q09028 whole entry partner) above
PRC2 complex (EZH2/EED/SUZ12/RbAp48/AEBP2), sequence (Q6ZN18 whole entry partner): as the sequence (Q6ZN18 whole entry partner) above

Molecule: Cc1cc(C)c(CNC(=O)c2cc3cccn3c(C(C)OCc3ccccc3F)c2C)c(=O)[nH]1 (stereo not shown) [Example 11]
- pIC50 [1]: 6.00 to 7.00
- pIC50 [2, 3]: 6.00 to 7.00

Molecule: Cc1cc(C)c(CNC(=O)c2cc3c(-c4ccc(N)nc4)ccn3c(C(C)N3CCN(CC(F)(F)F)CC3)c2C)c(=O)[nH]1 (stereo not shown) [Compound 158, 1-(6-aminopyridin-3-yl)-N-((4,6-dimethyl-2-oxo-1,2-dihydropyridin-3-yl)methyl)-6-methyl-5-(1-(4-(2,2,2-trifluoroethyl)piperazin-1-yl)ethyl)indolizine-7-carboxamide]
- pIC50 [1]: > 7.00
- pIC50 [2]: > 7.00

Molecule: Cc1cc(C)c(CNC(=O)c2cc3cccn3c(C(C)OCc3ccc(F)cc3)c2C)c(=O)[nH]1 (stereo not shown) [Example 10]
- pIC50 [1]: 6.00 to 7.00
- pIC50 [2, 3]: 6.00 to 7.00

Molecule: Cc1cc(C)c(CNC(=O)c2cc3cccn3c(C(C)c3ccccc3)c2C)c(=O)[nH]1 (stereo not shown) [Example 25, N-((4,6-dimethyl-2-oxo-1,2-dihydropyridin-3-yl)methyl)-6-methyl-5-(1-phenylethyl)indolizine-7-carboxamide]
- pIC50 [1]: > 7.00
- pIC50 [2, 3]: 6.00 to 7.00

Molecule: Cc1cc(C)c(CNC(=O)c2cc3cccn3c(C(C)OCc3nccs3)c2C)c(=O)[nH]1 (stereo not shown) [Example 18, N-((4,6-dimethyl-2-oxo-1,2-dihydropyridin-3-yl)methyl)-6-methyl-5-(1-(thiazole-2-ylmethoxy)ethyl)indolizine-7-carboxamide]
- pIC50 [1]: 6.00 to 7.00
- pIC50 [2, 3]: > 7.00

Molecule: Cc1cc(C)c(CNC(=O)c2cc3cccn3c(N(C)C3CCOCC3)c2C)c(=O)[nH]1 [Example 55, N-((4,6-dimethyl-2-oxo-1,2-dihydropyridin-3-yl)methyl)-6-methyl-5-(methyl(tetrahydro-2H-pyran-4-yl)amino)indolizine-7-carboxamide]
- pIC50 [1]: 6.00 to 7.00
- pIC50 [2, 3]: 6.00 to 7.00

Molecule: C#CCOC(C)c1c(C)c(C(=O)NCc2c(C)cc(C)[nH]c2=O)cc2cccn12 (stereo not shown) [Example 4, N-((4,6-dimethyl-2-oxo-1,2-dihydropyridin-3-yl)methyl)-6-methyl-5-(1-(prop-2-yn-1-yloxy)ethyl)indolizine-7-carboxamide]
- pIC50 [1]: 6.00 to 7.00
- pIC50 [2, 3]: 6.00 to 7.00

Molecule: Cc1cc(C)c(CNC(=O)c2cc3cccn3c(C(C)OCc3ccn(C)n3)c2C)c(=O)[nH]1 (stereo not shown) [Example 20]
- pIC50 [1]: 6.00 to 7.00
- pIC50 [2, 3]: 6.00 to 7.00

Molecule: Cc1cc(C)c(CNC(=O)c2cc3cc(Br)cn3c(N(C)C3CCOCC3)c2C)c(=O)[nH]1 [Example 57]
- pIC50 [1]: > 7.00

Molecule: Cc1cc(C)c(CNC(=O)c2cc3cccn3c(C(C)OCc3ccsc3)c2C)c(=O)[nH]1 (stereo not shown) [Example 19, N-((4,6-dimethyl-2-oxo-1,2-dihydropyridin-3-yl)methyl)-6-methyl-5-(1-(thiophene-3-ylmethoxy)ethyl)indolizine-7-carboxamide]
- pIC50 [1]: 6.00 to 7.00
- pIC50 [2, 3]: 6.00 to 7.00

Molecule: Cc1cc(C)c(CNC(=O)c2cc3cccn3c(C(C)OCc3cccc(F)c3)c2C)c(=O)[nH]1 (stereo not shown) [Example 12]
- pIC50 [1]: 6.00 to 7.00
- pIC50 [2, 3]: 6.00 to 7.00

Molecule: Cc1cc(C)c(CNC(=O)c2cc3c(-c4ccc(N)nc4)ccn3c([C@H](C)N3CCN(CC(F)(F)F)CC3)c2C)c(=O)[nH]1 (single isomer, unassigned) [Compound 159, (S)-1-(6-aminopyridin-3-yl)-N-((4,6-dimethyl-2-oxo-1,2-dihydropyridin-3-yl)methyl)-6-methyl-5-(1-(4-(2,2,2-trifluoroethyl)piperazin-1-yl)ethyl)indolizine-7-carboxamide or (R) 1-(6-aminopyridin-3-yl)-N-((4,6-dimethyl-2-oxo-1,2-dihydropyridin-3-yl)methyl)-6-methyl-5-(1-(4-(2,2,2-trifluoroethyl)piperazin-1-yl)ethyl)indolizine-7-carboxamide]
- pIC50 [1]: > 7.00
- pIC50 [2, 3]: > 7.00

Molecule: COc1cccc(COC(C)c2c(C)c(C(=O)NCc3c(C)cc(C)[nH]c3=O)cc3cccn23)c1 (stereo not shown) [Example 14, N-((4,6-dimethyl-2-oxo-1,2-dihydropyridin-3-yl)methyl)-5-(1-((3-methoxybenzyl)oxy)ethyl)-6-methylindolizine-7-carboxamide]
- pIC50 [1]: 6.00 to 7.00
- pIC50 [2, 3]: 6.00 to 7.00

Molecule: Cc1cc(C)c(CNC(=O)c2cc3cccn3c(C(C)OCc3c(F)cccc3F)c2C)c(=O)[nH]1 (stereo not shown) [Example 13]
- pIC50 [1]: 6.00 to 7.00
- pIC50 [2, 3]: 6.00 to 7.00

Molecule: COc1cc(C)[nH]c(=O)c1CNC(=O)c1cc2c(-c3ccc(C)nc3)ccn2c(C(C)N2CCN(CC(F)(F)F)CC2)c1C (stereo not shown) [Compound 192, N-((4-methoxy-6-methyl-2-oxo-1,2-dihydropyridin-3-yl)methyl)-6-methyl-1-(6-methylpyridin-3-yl)-5-(1-(4-(2,2,2-trifluoroethyl)piperazin-1-yl)ethyl)indolizine-7-carboxamide]
- pIC50 [2, 3]: > 7.00

Molecule: Cc1cc(C)c(CNC(=O)c2cc3c(-c4cccc(N5CCOCC5)c4)ccn3c(C(C)N3CCOCC3)c2C)c(=O)[nH]1 (stereo not shown) [Example 117, N-((4,6-dimethyl-2-oxo-1,2-dihydropyridin-3-yl)methyl)-6-methyl-5-(1-morpholinylethyl)-1-(3-morpholinylphenyl)indolizine-7-carboxamide]
- pIC50 [2]: > 7.00

Molecule: CNc1cc(-c2ccn3c([C@H](C)N4CCN(CC(F)(F)F)CC4)c(C)c(C(=O)NCc4c(OC)cc(C)[nH]c4=O)cc23)ccn1 (single isomer, unassigned) [Compound 181, (S)—N-((4-methoxy-6-methyl-2-oxo-1,2-dihydropyridin-3-yl)methyl)-6-methyl-1-(2-(methylamino)pyridin-4-yl)-5-(1-(4-(2,2,2-trifluoroethyl)piperazin-1-yl)ethyl)indolizine-7-formamide or (R)—N-((4-methoxy-6-methyl-2-oxo-1,2-dihydropyridin-3-yl)methyl)-6-methyl-1-(2-(methylamino)pyridin-4-yl)-5-(1-(4-(2,2,2-trifluoroethyl)piperazin-1-yl)ethyl)indolizine-7-formamide]
- pIC50 [2, 3]: > 7.00

Molecule: COC(C)c1c(C)c(C(=O)NCc2c(C)cc(C)[nH]c2=O)cc2cccn12 (stereo not shown) [Example 1, N-((4,6-Dimethyl-2-oxo-1,2-dihydropyridin-3-yl)methyl)-5-(1-methoxyethyl)-6-methylindolizine-7-carboxamide]
- pIC50 [2, 3]: 6.00 to 7.00

Molecule: N-((4-methoxy-6-methyl-2-oxo-1,2-dihydropyridin-3-yl)methyl)-6-methyl-1-(2-methylpyridin-3-yl)-5-(1-(4-(2,2,2-trifluoroethyl)piperazin-1-yl)ethyl)indolizine-7-carboxamide [Compound 166]
- pIC50 [2, 3]: > 7.00

Molecule: CCN(c1c(C)c(C(=O)NCc2c(C)cc(C)[nH]c2=O)cc2cccn12)C1CCOCC1 [Example 56, N-((4,6-dimethyl-2-oxo-1,2-dihydropyridin-3-yl)methyl)-6-methyl-5-(ethyl(tetrahydro-2H-pyran-4-yl)amino)indolizine-7-carboxamide]
- pIC50 [2]: > 7.00

Molecule: COc1cc(C)[nH]c(=O)c1CNC(=O)c1cc2c(-c3ccc(F)cc3)ccn2c(C(C)N2CCN(CC(F)(F)F)CC2)c1C (stereo not shown) [Compound 162, 1-(4-fluorophenyl)-N-((4-methoxy-6-methyl-2-oxo-1,2-dihydropyridin-3-yl)methyl)-6-methyl-5-(1-(4-(2,2,2-trifluoroethyl)piperazin-1-yl)ethyl)indolizine-7-carboxamide]
- pIC50 [2]: > 7.00

Molecule: COc1cc(C)[nH]c(=O)c1CNC(=O)c1cc2c(-c3ccn[nH]3)ccn2c(C(C)OCc2nccs2)c1C (stereo not shown) [Compound 191, N-((4-methoxy-6-methyl-2-oxo-1,2-dihydropyridin-3-yl)methyl)-6-methyl-1-(1H-pyrazol-5-yl)-5-(1-(thiazol-2-ylmethoxy)ethyl)indolizine-7-carboxamide]
- pIC50 [2]: > 7.00

Molecule: COc1cc(C)[nH]c(=O)c1CNC(=O)c1cc2cc(Cl)cn2c(C(C)N2CCC(N(C)C)CC2)c1C (stereo not shown) [Example 130, 2-chloro-5-(1-(4-(dimethylamino)piperidin-1-yl)ethyl)-N-((4-methoxy-6-methyl-2-oxo-1,2-di hydropyridin-3-yl)methyl)-6-methylindolizine-7-carboxamide]
- pIC50 [2, 3]: > 7.00

Molecule: CCN1CCN(C(C)c2c(C)c(C(=O)NCc3c(C)cc(C)[nH]c3=O)cc3cc(Br)cn23)CC1 (stereo not shown) [Example 98, N-((4,6-dimethyl-2-oxo-1,2-dihydropyridin-3-yl)methyl)-6-methyl-5-(1-(4-methylpiperazine)-1-ethyl)-2-bromoindolizine-7-carboxamide]
- pIC50 [2, 3]: 6.00 to 7.00
